For the first assay, the target named is human RORgammaT-Ligand Binding Domain (LBD) (Homo sapiens (Human), UniProt P51449). As to the kind of experiment: RORγ-Ligand Binding Domain TR-FRET Assay (SRC1_2 co-activator peptide). The assay is classed as biochemical. Conditions: Fret IC50 (nM), HIS-tagged RORγ-LBD 3 nM, biotinylated SRC1 LXXLL peptide 100 nM, incubated overnight at 4° C.
Sequence of human RORgammaT-Ligand Binding Domain (LBD) (P51449 269-508): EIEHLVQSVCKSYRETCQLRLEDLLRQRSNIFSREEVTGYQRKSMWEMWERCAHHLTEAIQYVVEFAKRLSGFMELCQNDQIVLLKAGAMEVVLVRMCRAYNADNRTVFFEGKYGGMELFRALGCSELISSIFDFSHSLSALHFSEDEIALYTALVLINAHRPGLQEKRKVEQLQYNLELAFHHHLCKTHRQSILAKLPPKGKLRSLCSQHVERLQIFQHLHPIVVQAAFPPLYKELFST
`N#CC1(c2cccc(Cl)c2C(=O)n2nc(C3=CCC(C(=O)O)CC3)c3c2COCC3)CCC1` (single isomer, unassigned) [Example 2C-B, (1R or S)-4-(1-{[2-chloro-6-(1-cyanocyclobutyl)phenyl]carbonyl}-1,4,5,7-tetrahydropyrano[3,4-c]pyrazol-3-yl)cyclohex-3-ene-1-carboxylic acid] gave an IC50 of 1050 nM. On the same count and under the same terms, next, `N#CC1(c2cccc(Cl)c2C(=O)n2nc(C3=CCC(C(=O)O)CC3)c3c2COCC3)CCC1` (single isomer, unassigned) [Example 2C-A, (1R or S)-4-(1-{[2-chloro-6-(1-cyanocyclobutyl)phenyl]carbonyl}-1,4,5,7-tetrahydropyrano[3,4-c]pyrazol-3-yl)cyclohex-3-ene-1-carboxylic acid]: 676 nM.

Still in this assay, the particulars now being: HIS-tagged RORγ-LBD 3 nM, biotinylated SRC1 LXXLL peptide 100 nM, incubated overnight at 4° C.; read-out: Fret IC50.
As to `O=C(O)C1CC=C(c2nn(C(=O)c3c(Cl)cccc3C3COC3)c3c2CCC(CO)C3)CC1` (single isomer, unassigned) [Example 7C, 4-((R or S)-1-(2-chloro-6-(oxetan-3-yl)benzoyl)-6-(hydroxymethyl)-4,5,6,7-tetrahydro-1H-indazol-3-yl)cyclohex-3-ene-1-carboxylic acid], the IC50 stood at 15 nM. Still for that read-out and setting: for `O=C(O)C1CC=C(c2nn(C(=O)c3c(Cl)cccc3C3CC3)c3c2CCC(CO)C3)CC1` (single isomer, unassigned) [Example 7A, 4-((R or S)-1-(2-chloro-6-cyclopropylbenzoyl)-6-(hydroxymethyl)-4,5,6,7-tetrahydro-1H-indazol-3-yl)cyclohex-3-ene-1-carboxylic Acid] the value was 9 nM; for `O=C(O)C1CCN(c2nn(C(=O)c3c(Cl)cccc3C3CC3)c3c2CCCC3)CC1` [Example 16A, 1-(1-(2-chloro-6-cyclopropylbenzoyl)-4,5,6,7-tetrahydro-1H-indazol-3-yl)piperidine-4-carboxylic Acid], 149 nM.

In the case of `CC1(c2cccc(Cl)c2C(=O)n2nc(C3=CCC(C(=O)O)CC3)c3c2COCC3)CC1` (centres unmarked) [Example 1D, 4-(1-{[2-chloro-6-(1-methylcyclopropyl)phenyl]carbonyl}-1,4,5,7-tetrahydropyrano[3,4-c]pyrazol-3-yl)cyclohex-3-ene-1-carboxylic acid], the IC50 was 38 nM. On the same count and under the same terms, for `O=C(O)C1CC=C(c2nn(C(=O)c3c(Cl)cccc3C3CC3)c3c2CCC(CO)C3)CC1` (single isomer, unassigned) [Example 6A, 4-((R or S)-1-(2-chloro-6-cyclopropylbenzoyl)-6-(hydroxymethyl)-4,5,6,7-tetrahydro-1H-indazol-3-yl)cyclohex-3-ene-1-carboxylic Acid] the value was 173 nM; for `O=C(O)C1CC=C(c2nn(C(=O)c3c(Cl)cccc3C3CC3)c3c2OCCC3)CC1` (centres unmarked) [Example 15A, 4-(1-(2-chloro-6-cyclopropylbenzoyl)-1,5,6,7-tetrahydropyrano[3,2-c]pyrazol-3-yl)cyclohex-3-ene-1-carboxylic Acid], 56 nM.

As to `O=C(O)C1CC=C(c2nn(C(=O)c3c(Cl)cccc3C3(C(F)(F)F)CC3)c3c2CCC(CO)C3)CC1` (single isomer, unassigned) [Example 7D, 4-((R or S)-1-(2-chloro-6-(1-(trifluoromethyl)cyclopropyl)benzoyl)-6-(hydroxymethyl)-4,5,6,7-tetrahydro-1H-indazol-3-yl)cyclohex-3-ene-1-carboxylic acid], the IC50 came to 5 nM.

`O=C(O)C1CC=C(c2nn(C(=O)c3c(Cl)cccc3C3CC3)c3c2CCC(O)C3)CC1` (single isomer, unassigned) [Example 10A, 4-((R or S)-1-(2-chloro-6-cyclopropylbenzoyl)-6-hydroxy-4,5,6,7-tetrahydro-1H-indazol-3-yl)cyclohex-3-ene-1-carboxylic Acid]: the IC50 was found to be 57 nM. Still for that read-out and setting: for `N#CC1(c2cccc(Cl)c2C(=O)n2nc(C3=CCC(C(=O)O)CC3)c3c2CCC3)CCC1` (centres unmarked) [Example 1F, 4-(1-{[2-chloro-6-(1-cyanocyclobutyl)phenyl]carbonyl}-1,4,5,6-tetrahydrocyclopenta[c]pyrazol-3-yl)cyclohex-3-ene-1-carboxylic acid] the value was 1170 nM; for `O=C(O)C1CC=C(c2nn(C(=O)c3c(Cl)cccc3C3CC3)c3c2CCC(O)C3)CC1` (single isomer, unassigned) [Example 10B, 4-((R or S)-1-(2-chloro-6-cyclopropylbenzoyl)-6-hydroxy-4,5,6,7-tetrahydro-1H-indazol-3-yl)cyclohex-3-ene-1-carboxylic Acid], 32 nM. In the case of `O=C(O)C1CC=C(c2nn(C(=O)c3c(C4CC4)ccc(F)c3Cl)c3c2CCC(CO)C3)CC1` (single isomer, unassigned) [Example 7B, 4-((R or S)-1-(2-chloro-6-cyclopropyl-3-fluorobenzoyl)-6-(hydroxymethyl)-4,5,6,7-tetrahydro-1H-indazol-3-yl)cyclohex-3-ene-1-carboxylic acid], the IC50 was determined as 14 nM. As to `NCC1CCc2c(C3=CCC(C(=O)O)CC3)nn(C(=O)c3c(Cl)cccc3C3CC3)c2C1` (single isomer, unassigned) [Example 14A, 4-((R or S)-6-(aminomethyl)-1-(2-chloro-6-cyclopropylbenzoyl)-4,5,6,7-tetrahydro-1H-indazol-3-yl)cyclohex-3-ene-1-carboxylic Acid], the 50% inhibitory concentration (IC50) amounted to 1200 nM.

Source of the values: patent publication US10344000B2, “Substituted bicyclic pyrazole compounds as RORgammaT inhibitors and uses thereof” (Merck Sharp & Dohme Corp., priority 2015, dated 2019).
